Measurements published in ChEMBL document CHEMBL1201862, “PubChem BioAssay data set” (2004).
Calls of active or inactive are those of the source.

Experiments:
Streptokinase A = molecular target: T1, Streptokinase A (Streptococcus pyogenes serotype M1, UniProt P10520); experiment: S. pyogenes streptokinase expression inhibitors, potency, dose response, plasminogen activation absorbance, OD405 (AID 1914); assay type: functional, Streptococcus pyogenes M1 GAS;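 note: secreted streptokinase activity via plasminogen activation per viability signal from cell pellet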
T1 sequence (P10520 whole entry): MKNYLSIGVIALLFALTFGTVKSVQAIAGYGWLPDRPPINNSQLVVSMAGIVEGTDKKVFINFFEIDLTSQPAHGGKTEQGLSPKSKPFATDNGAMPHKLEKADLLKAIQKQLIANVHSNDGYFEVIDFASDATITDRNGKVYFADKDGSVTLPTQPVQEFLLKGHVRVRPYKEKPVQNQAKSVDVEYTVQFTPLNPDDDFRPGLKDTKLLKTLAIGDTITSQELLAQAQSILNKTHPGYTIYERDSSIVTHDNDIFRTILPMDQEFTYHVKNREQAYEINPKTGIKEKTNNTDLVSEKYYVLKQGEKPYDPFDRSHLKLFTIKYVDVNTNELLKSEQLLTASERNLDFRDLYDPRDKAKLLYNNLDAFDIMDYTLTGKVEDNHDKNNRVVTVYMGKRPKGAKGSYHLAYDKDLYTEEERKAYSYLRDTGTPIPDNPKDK

[1] = test system: Streptococcus sp. 'group A'; experiment: growth inhibition of control SK(-) GAS strain, dose response, counter-screen for streptokinase expression inhibitor project, luminescence, kanamycin, BacTiterGlo, confirmation (AID 1900); assay type: functional, organism-based
Streptococcus = experiment: Group A Streptococcus viability loss, dose response, counter-screen for streptokinase expression inhibitor project, luminescence, BacTiterGlo (AID 1915); assay type: functional, organism-based;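 note: potency for reduction of bacterial viability or growth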
Cytochrome P450 2C19 = Cytochrome P450 2C19 (Homo sapiens, UniProt P33261); experiment: Cytochrome panel assay with activity outcomes. Panel member name: p450-cyp2c19 Compounds with AC50 equal or less than 10 uM are considered active; assay type: functional
Sequence of Cytochrome P450 2C19 (P33261 whole entry): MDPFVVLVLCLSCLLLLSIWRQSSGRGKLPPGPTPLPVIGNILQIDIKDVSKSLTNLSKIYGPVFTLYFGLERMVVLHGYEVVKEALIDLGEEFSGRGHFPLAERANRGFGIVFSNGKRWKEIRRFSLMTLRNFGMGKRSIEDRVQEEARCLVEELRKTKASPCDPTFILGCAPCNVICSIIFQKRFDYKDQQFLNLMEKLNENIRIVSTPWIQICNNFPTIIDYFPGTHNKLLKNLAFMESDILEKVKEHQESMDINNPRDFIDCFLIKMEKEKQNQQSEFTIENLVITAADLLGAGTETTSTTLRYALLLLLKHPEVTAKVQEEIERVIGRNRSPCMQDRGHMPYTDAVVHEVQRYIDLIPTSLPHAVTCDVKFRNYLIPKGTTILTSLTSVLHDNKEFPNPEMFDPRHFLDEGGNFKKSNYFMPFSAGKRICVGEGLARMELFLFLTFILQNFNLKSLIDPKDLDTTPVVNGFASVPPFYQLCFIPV

[2] = inhibitors of intracellular T. cruzi replication, confirmation, NIH3T3 host cells, beta-gal luminescence (AID 2044); assay type: functional, cell-based;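 note: intracellular parasites grown in NIH/3T3 mouse fibroblasts as host cells; luminescent beta-galactosidase reporter signal from transgenic T. cruzi replicating inside host cells; inhibitors lower the luminescence signal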
[3] = cytotoxicity toward NIH3T3 fibroblasts, dose response, counter-screen, cell-based, ATP luminescence, mouse fibroblasts (AID 2010); assay type: functional;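 note: cells exposed to compound for about 90 hours before reading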

| Compound | EC50 (Streptokinase A) | EC50 [1] | EC50 (Streptococcus) | further results |
| --- | --- | --- | --- | --- |
| O=C(Nc1nnc(C2=COCCO2)o1)c1cccc(F)c1 | > 150 µM (not active) | 1.83 µM (active) | 19.6 µM (active) | – |
| Cc1cccc(OCC(=O)Nc2ccc(C(=O)Nc3ccccc3C(=O)O)cc2)c1C | > 150 µM (not active) | 6.06 µM (active) | > 150 µM (not active) | – |
| Cc1ccccc1-c1cc(-c2ccccc2O)[nH]n1 | – | 9.25 µM (active) | > 150 µM (not active) | – |
| Cc1oc(-c2ccc(F)cc2)nc1CN(Cc1ccccn1)CC1CCCO1 (centres undefined) | > 150 µM (not active) | 30.4 µM (active) | > 150 µM (not active) | – |
| CCOC(=O)C1CN(S(=O)(=O)c2cccc(C(F)(F)F)c2)c2cc(CC(=O)OC)ccc2O1 (centres undefined) | – | – | – | AC50 (Cytochrome P450 2C19; read-out: AC50): 0.282 µM (inconclusive) |
| Nc1nc(Nc2ccc(Cl)cc2)nc(NCc2ccco2)c1[N+](=O)[O-] | > 150 µM (not active) | 7.12 µM (active) | 26.4 µM (inconclusive) | – |
| CO[C@@H]1COC(=O)[C@H]2CCCN2C(=O)C/C=C\[C@@H](C)[C@H](OC)COC(=O)[C@H]2CCCN2C(=O)C/C=C\[C@H]1C | – | – | – | AC50 (Cytochrome P450 2C19): inconclusive |
| Cc1cccc(OCCCCc2c(C)n[nH]c2C)c1C | – | 6.66 µM (active) | 17 µM (active) | – |
| C/N=C(N)/N=C(\N)Nc1cc2ccccc2c2ccccc12 | – | – | – | AC50 (Cytochrome P450 2C19; read-out: AC50): 3.98 µM (inconclusive) |
| CC(C)Cn1c(=O)c(C(=O)N/N=C/c2cccc(F)c2)c(O)c2ccccc21 | – | 1.28 µM (active) | 3.69 µM (active) | – |
| CCN(CC)c1ccc(NC(=O)c2c(C)noc2C)cc1 | > 150 µM (not active) | > 150 µM (not active) | > 150 µM (not active) | – |
| COc1ccc(C(C(=O)NC(C)(C)C)N(C(=O)CNC(=O)c2cccs2)c2ccc(C)cc2)cc1OC (centres undefined) | – | – | – | AC50 (Cytochrome P450 2C19; read-out: AC50): 17.8 µM (inconclusive) |
| Cc1ccc(Cn2c(O)c(N=NC(S)=Nc3ccccc3F)c3ccccc32)cc1 | – | – | – | EC50 [2]: 0.886 µM (active); EC50 [3]: 17.4 µM (active) |
| Cc1ccc(NC(=O)CCC(=O)NNS(=O)(=O)c2ccccc2)c(C)c1 | – | – | – | AC50 (Cytochrome P450 2C19; read-out: AC50): 17.8 µM (inconclusive) |
| Cc1c(Br)c([N+](=O)[O-])nn1CC(=O)NCc1ccccn1 | – | – | – | AC50 (Cytochrome P450 2C19): inconclusive |
| N#Cc1c(N2CCOCC2)nc(N2CCCCC2)c2c1CCN(C1CCCCC1)C2 | – | – | – | EC50 [2]: 0.251 µM (active); EC50 [3]: > 30 µM (not active) |
| CN(C)CCCN(C(=O)CCc1ccccc1)c1nc2c(F)cccc2s1 | – | – | – | EC50 [2]: 0.819 µM (active); EC50 [3]: > 30 µM (not active) |
| COc1cc(CN2CCCC(C(=O)c3ccccc3SC)C2)cc(OC)c1 (centres undefined) | – | – | – | EC50 [2]: 0.557 µM (active); EC50 [3]: > 60 µM (not active) |
| Cc1ccc(C)c(NC(=S)N2CCC(c3nc4ccccc4s3)CC2)c1 | – | – | – | EC50 [2]: 3.67 µM (active); EC50 [3]: > 30 µM (not active) |
| O=C(NCc1ccccc1)C(=O)Nc1nc(-c2ccccc2)cs1 | > 150 µM (not active) | 5.38 µM (active) | 14.1 µM (active) | – |
| Nc1ccc(-c2nc3nc(N)nc(N)c3nc2-c2ccc(N)cc2)cc1 | > 150 µM (not active) | 2.94 µM (active) | > 150 µM (not active) | – |
| CN(C)c1ccc(/C=C/c2c([N+](=O)[O-])c(=O)n(C)c(=O)n2C)cc1 | > 150 µM (not active) | 5.75 µM (active) | 18.3 µM (active) | – |
| O=C(O)CCCCCCCCc1cn(Cc2ccc(C(=O)c3ccccc3)cc2)nn1 | – | – | – | EC50 [2]: > 60 µM (not active); EC50 [3]: 6.22 µM (active) |
| Cc1ccccc1-c1cc(-c2ccccc2O)n[nH]1 | 66.2 µM (inconclusive) | – | – | – |
| CCN(CC)CCN(C(=O)CCS(=O)(=O)c1ccccc1)c1nc2cc3c(cc2s1)OCO3 | – | – | – | EC50 [2]: 0.794 µM (active); EC50 [3]: > 60 µM (not active) |
| CCCc1nnc(NC(=O)Cn2cnc3ccccc3c2=O)s1 | – | – | – | AC50 (Cytochrome P450 2C19; read-out: AC50): 25.1 µM (inconclusive) |
| CCOc1ccc(NC(=O)CC2C(=O)N(C)C(=S)N2CCCc2ccccc2)cc1 (centres undefined) | – | – | – | EC50 [2]: 2.4 µM (active); EC50 [3]: > 60 µM (not active) |
